Laboratory results from patent US20210382058A1, “PATIENT SELECTION FOR TREATMENT OF MYC POSITIVE CANCERS WITH INDENOISOQUINOLINES” (Purdue Research Foundation, priority 2020, published 2021).
Where two headings read alike, the source gives them in different places.

Assays:
[1] = tested on: MYC protein expression in MCF-7 breast cancer cells; assay: Western blotting of MYC protein level in MCF-7 cells; format: cell-based, human; settings: Homo sapiens, MCF7; western blotting, MCF-7 cells, 0.5, 1, 2, and 4 μM, 24 hours; read-out: MYC Inhibition
How it was run: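 Immunoblotting with ECL detection quantified MYC, with GAPDH (1:2000) as reference and anti-MYC at 1:1000.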

[2] = biological target: T1, human topoisomerase I (Homo sapiens, UniProt P11387); settings: relative topoisomerase I inhibition levels, previously determined, six levels (0 - 5, +++++ = 5); cited from earlier work
T1 sequence (P11387 1-765): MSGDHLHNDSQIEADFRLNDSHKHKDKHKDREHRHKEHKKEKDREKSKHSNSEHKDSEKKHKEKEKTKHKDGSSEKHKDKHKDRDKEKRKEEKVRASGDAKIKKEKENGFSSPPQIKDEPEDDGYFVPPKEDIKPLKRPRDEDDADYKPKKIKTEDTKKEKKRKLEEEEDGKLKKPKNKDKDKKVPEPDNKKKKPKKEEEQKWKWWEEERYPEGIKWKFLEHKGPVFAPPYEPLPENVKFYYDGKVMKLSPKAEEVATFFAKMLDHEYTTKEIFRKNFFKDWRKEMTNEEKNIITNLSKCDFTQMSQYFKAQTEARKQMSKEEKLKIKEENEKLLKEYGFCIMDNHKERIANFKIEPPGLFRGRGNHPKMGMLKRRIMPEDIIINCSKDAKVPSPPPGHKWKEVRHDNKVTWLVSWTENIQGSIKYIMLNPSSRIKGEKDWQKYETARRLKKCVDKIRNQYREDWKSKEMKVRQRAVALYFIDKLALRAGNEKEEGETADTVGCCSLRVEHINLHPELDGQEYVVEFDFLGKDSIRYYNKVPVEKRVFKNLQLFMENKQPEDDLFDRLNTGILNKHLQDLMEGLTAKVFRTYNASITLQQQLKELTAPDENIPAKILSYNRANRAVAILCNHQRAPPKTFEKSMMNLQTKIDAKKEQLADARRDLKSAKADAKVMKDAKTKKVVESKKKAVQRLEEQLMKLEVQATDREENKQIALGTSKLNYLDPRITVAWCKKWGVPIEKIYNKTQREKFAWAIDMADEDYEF

[3] = tested on: NCI-60 cancer cell lines; assay: NCI-60 cancer cell line drug screen (GI50, MGM); format: cell-based, human; settings: Homo sapiens; for GI50: read-out: Antiproliferative Activities [GI50 (μM)]
Experimental: Cancer cells were incubated with the test compounds at five concentrations ranging from 100 μM to 10 nM for 48 h. […] The approximate average of GI50 values across the entire panel of NCI-60 cancer cell lines for each compound was recorded as the MGM value.

## COc1cc2c(cc1O)-c1c(c3ccc([N+](=O)[O-])cc3c(=O)n1CCCN)C2=O [Compound 38]
[1]
  minimal effective concentration: 4 µM
[2]
  Top1 Inhibiton: ++ (medium inhibition, ++, MYC expression inhibited at 2.0 μM, or no clear dose-dependent MYC inhibition)
[3]; 786-0, Renal Cancer, 786-0
  GI50: 0.34 µM
[3]; A498, Renal Cancer, A498
  GI50: 0.96 µM
[3]; A549, Non-Small Cell Lung Cancer, A549/ATCC
  GI50: 1.31 µM
[3]; ACHN, Renal Cancer, ACHN
  GI50: 0.28 µM
[3]; BT-549, Breast Cancer, BT-549
  GI50: 0.36 µM
[3]; CAKI-1, Renal Cancer, CAKI-1
  GI50: 0.29 µM
[3]; CCRF-CEM, Leukemia, CCRF-CEM
  GI50: 0.11 µM
[3]; COLO 205, Colon Cancer, COLO 205
  GI50: 0.69 µM
[3]; DU-145, Prostate Cancer, DU-145
  GI50: 0.43 µM
[3]; HCC 2998, Colon Cancer, HCC-2998
  GI50: 0.62 µM
[3]; HCT-15, Colon Cancer, HCT-15
  GI50: 1.49 µM
[3]; HCT-116, Colon Cancer, HCT-116
  GI50: 0.15 µM
[3]; HL-60, Leukemia, HL-60(TB)
  GI50: 1.48 µM
[3]; HOP-62, Non-Small Cell Lung Cancer, HOP-62
  GI50: 0.46 µM
[3]; HOP-92, Non-Small Cell Lung Cancer, HOP-92
  GI50: 1.34 µM
[3]; HT-29, Colon Cancer, HT29
  GI50: 0.48 µM
[3]; IGROV-1, Ovarian Cancer, IGROV1
  GI50: 1.24 µM
[3]; K562, Leukemia, K-562
  GI50: 0.77 µM
[3]; KM12, Colon Cancer, KM12
  GI50: 1.34 µM
[3]; LOX IMVI, Melanoma, LOX IMVI
  GI50: 0.3 µM
[3]; Leukemia, SR
  GI50: 0.04 µM
[3]; MCF7, Breast Cancer, MCF7
  GI50: 0.16 µM
[3]; MDA-MB-231, Breast Cancer, MDA-MB-231/ATCC
  GI50: 1.57 µM
[3]; MDA-MB-435, Melanoma, MDA-MB-435
  GI50: 1.3 µM
[3]; MDA-MB-468, Breast Cancer, MDA-MB-468
  GI50: 0.24 µM
[3]; MOLT-4, Leukemia, MOLT-4
  GI50: 0.15 µM
[3]; Malme-3M, Melanoma, MALME-3M
  GI50: 2.16 µM
[3]; Melanoma, M14
  GI50: 0.46 µM
[3]; NCI-H23, Non-Small Cell Lung Cancer, NCI-H23
  GI50: 0.38 µM
[3]; NCI-H226, Non-Small Cell Lung Cancer, NCI-H226
  GI50: 1.18 µM
[3]; NCI-H322M, Non-Small Cell Lung Cancer, NCI-H322M
  GI50: 1.39 µM
[3]; NCI-H460, Non-Small Cell Lung Cancer, NCI-H460
  GI50: 0.37 µM
[3]; NCI-H522, Non-Small Cell Lung Cancer, NCI-H522
  GI50: 0.78 µM
[3]; OVCAR-3, Ovarian Cancer, OVCAR-3
  GI50: 1.69 µM
[3]; OVCAR-4, Ovarian Cancer, OVCAR-4
  GI50: 1.11 µM
[3]; OVCAR-5, Ovarian Cancer, OVCAR-5
  GI50: 1.67 µM
[3]; OVCAR-8, Ovarian Cancer, OVCAR-8
  GI50: 1.01 µM
[3]; Ovarian Cancer, NCl/ADR-RES
  GI50: 2.55 µM
[3]; Prostate Cancer, PC-3
  GI50: 0.64 µM
[3]; RPMI-8226, Leukemia, RPMI-8226
  GI50: 1.02 µM
[3]; RXF 393, Renal Cancer, RXF 393
  GI50: 1.13 µM
[3]; Renal Cancer, U0-31
  GI50: 0.69 µM
[3]; SF-268, CNS Cancer, SF-268
  GI50: 0.55 µM
[3]; SF-295, CNS Cancer, SF-295
  GI50: 0.28 µM
[3]; SF-539, CNS Cancer, SF-539
  GI50: 0.67 µM
[3]; SK-MEL-2, Melanoma, SK-MEL-2
  GI50: 2.18 µM
[3]; SK-MEL-5, Melanoma, SK-MEL-5
  GI50: 1.26 µM
[3]; SK-MEL-28, Melanoma, SK-MEL-28
  GI50: 1.88 µM
[3]; SK-OV-3, Ovarian Cancer, SK-OV-3
  GI50: 1.15 µM
[3]; SN12C, Renal Cancer, SN12C
  GI50: 0.45 µM
[3]; SNB-19, CNS Cancer, SNB-19
  GI50: 1.08 µM
[3]; SNB-75, CNS Cancer, SNB-75
  GI50: 0.16 µM
[3]; SW-620, Colon Cancer, SW-620
  GI50: 0.34 µM
[3]; T47D, Breast Cancer, T-47D
  GI50: 0.7 µM
[3]; TK-10, Renal Cancer, TK-10
  GI50: 1.85 µM
[3]; U-251, CNS Cancer, U251
  GI50: 0.33 µM
[3]; UACC-62, Melanoma, UACC-62
  GI50: 0.95 µM
[3]; UACC-257, Melanoma, UACC-257
  GI50: 1.57 µM
[3]; average of GI50 values across the entire panel of NCI-60 cancer cell lines
  mean GI50 across NCI-60 panel (MGM): 660 nM
